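Protocol summary: plate cells (96-well), add compound at 5 concentrations, incubate 48 h, interpolate endpoints linearly. GI50 is the concentration that inhibits growth by half.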 Activity calls are given as the source filed them. Rule as the data show it: active = GI50 up to about 1.1 µM and inactive = higher.
Assays:
Assay in all cases: inhibition of tumour cell growth, NCI panel, 48 h
OVCAR-4 = test system: OVCAR-4
NCI/ADR-RES = test system: NCI/ADR-RES
HCT-15 = test system: HCT-15
Hs-578T = test system: Hs-578T
CAKI-1 = test system: CAKI-1
NCI-H460 = test system: NCI-H460
KM12 = test system: KM12
RPMI-8226 = test system: RPMI-8226
IGROV-1 = test system: IGROV-1
HCT-116 = test system: HCT-116
CCRF-CEM = test system: CCRF-CEM
DU-145 = test system: DU-145
SK-MEL-5 = test system: SK-MEL-5
OVCAR-8 = test system: OVCAR-8
NCI-H522 = test system: NCI-H522
SR = test system: SR
ACHN = test system: ACHN
HOP-92 = test system: HOP-92
A549 = test system: A549
A498 = test system: A498
MDA-MB-435 = test system: MDA-MB-435
HT-29 = test system: HT-29
UACC-62 = test system: UACC-62
UO-31 = test system: UO-31
PC-3 = test system: PC-3
RXF 393 = test system: RXF 393
SNB-75 = test system: SNB-75
MOLT-4 = test system: MOLT-4
UACC-257 = test system: UACC-257
K562 = test system: K562
SF-268 = test system: SF-268
EKVX = test system: EKVX
HCC 2998 = test system: HCC 2998
HL-60 = test system: HL-60
COLO 205 = test system: COLO 205
LOX IMVI = test system: LOX IMVI
SK-MEL-28 = test system: SK-MEL-28
MDA-N = test system: MDA-N
SW-620 = test system: SW-620
SK-OV-3 = test system: SK-OV-3
SK-MEL-2 = test system: SK-MEL-2
NCI-H23 = test system: NCI-H23
MDA-MB-231 = test system: MDA-MB-231
TK-10 = test system: TK-10
HOP-62 = test system: HOP-62
SN12C = test system: SN12C
Malme-3M = test system: Malme-3M
T47D = test system: T47D
U-251 = test system: U-251
OVCAR-5 = test system: OVCAR-5
SF-295 = test system: SF-295
NCI-H226 = test system: NCI-H226
786-0 = test system: 786-0
SNB-19 = test system: SNB-19
SF-539 = test system: SF-539
M14 = test system: M14
OVCAR-3 = test system: OVCAR-3
MCF7 = test system: MCF7

## O=C1C(=O)N(C23CC4CC(CC(C4)C2)C3)C(=S)N1c1ccccc1
OVCAR-4
  GI50: > 100 µM (inactive)
NCI/ADR-RES
  GI50: 66.2 µM (inactive)
HCT-15
  GI50: > 100 µM
Hs-578T
  GI50: > 100 µM (inactive)
CAKI-1
  GI50: > 100 µM (inactive)
NCI-H460
  GI50: 97.9 µM (inactive)
KM12
  GI50: > 100 µM (inactive)
RPMI-8226
  GI50: > 100 µM (inactive)
IGROV-1
  GI50: > 100 µM (inactive)
HCT-116
  GI50: 93.5 µM (inactive)
CCRF-CEM
  GI50: 29 µM (inactive)
DU-145
  GI50: > 100 µM (inactive)
SK-MEL-5
  GI50: 61.2 µM (inactive)
OVCAR-8
  GI50: 97.9 µM (inactive)
NCI-H522
  GI50: 17.1 µM (inactive)
SR
  GI50: > 100 µM (inactive)
ACHN
  GI50: > 100 µM (inactive)
HOP-92
  GI50: 30 µM (inactive)
A549
  GI50: 65.5 µM (inactive)
A498
  GI50: > 100 µM (inactive)
MDA-MB-435
  GI50: > 100 µM (inactive)
HT-29
  GI50: > 100 µM (inactive)
UACC-62
  GI50: > 100 µM (inactive)
UO-31
  GI50: > 100 µM (inactive)
PC-3
  GI50: > 100 µM (inactive)
RXF 393
  GI50: > 100 µM (inactive)
SNB-75
  GI50: > 100 µM (inactive)
MOLT-4
  GI50: > 100 µM (inactive)
UACC-257
  GI50: 32.7 µM (inactive)
K562
  GI50: > 100 µM (inactive)
SF-268
  GI50: > 100 µM (inactive)
EKVX
  GI50: 43.5 µM (inactive)
HCC 2998
  GI50: > 100 µM (inactive)
HL-60
  GI50: 42.8 µM (inactive)
COLO 205
  GI50: > 100 µM (inactive)
LOX IMVI
  GI50: > 100 µM (inactive)
SK-MEL-28
  GI50: > 100 µM (inactive)
MDA-N
  GI50: > 100 µM (inactive)
SW-620
  GI50: > 100 µM (inactive)
SK-OV-3
  GI50: > 100 µM (inactive)
SK-MEL-2
  GI50: 70.8 µM (inactive)
NCI-H23
  GI50: 49.1 µM (inactive)
MDA-MB-231
  GI50: > 100 µM (inactive)
TK-10
  GI50: 58.9 µM (inactive)
HOP-62
  GI50: > 100 µM (inactive)
SN12C
  GI50: > 100 µM (inactive)
Malme-3M
  GI50: > 100 µM (inactive)
T47D
  GI50: > 100 µM (inactive)
U-251
  GI50: > 100 µM (inactive)
OVCAR-5
  GI50: > 100 µM (inactive)
SF-295
  GI50: 97.5 µM (inactive)
NCI-H226
  GI50: 60 µM (inactive)
786-0
  GI50: > 100 µM (inactive)
SNB-19
  GI50: > 100 µM (inactive)
SF-539
  GI50: > 100 µM (inactive)

## CCOC(=O)c1sc2c(c1OC(=O)c1ccc(OC)cc1)c(=O)n(-c1ccccc1)c(=S)n2-c1ccccc1
OVCAR-4
  GI50: 10.2 µM (inactive)
NCI/ADR-RES
  GI50: 21.8 µM (inactive)
HCT-15
  GI50: > 100 µM
Hs-578T
  GI50: > 100 µM (inactive)
CAKI-1
  GI50: > 100 µM (inactive)
NCI-H460
  GI50: 94.6 µM (inactive)
KM12
  GI50: > 100 µM (inactive)
RPMI-8226
  GI50: > 100 µM (inactive)
IGROV-1
  GI50: > 100 µM (inactive)
HCT-116
  GI50: 20.7 µM (inactive)
CCRF-CEM
  GI50: > 100 µM (inactive)
DU-145
  GI50: > 100 µM (inactive)
SK-MEL-5
  GI50: 27.6 µM (inactive)
OVCAR-8
  GI50: > 100 µM (inactive)
NCI-H522
  GI50: 1.41 µM (inactive)
SR
  GI50: 36.5 µM (inactive)
ACHN
  GI50: > 100 µM (inactive)
HOP-92
  GI50: 20.9 µM (inactive)
A549
  GI50: > 100 µM (inactive)
A498
  GI50: 17.1 µM (inactive)
MDA-MB-435
  GI50: > 100 µM (inactive)
HT-29
  GI50: > 100 µM (inactive)
UACC-62
  GI50: > 100 µM (inactive)
PC-3
  GI50: > 100 µM (inactive)
RXF 393
  GI50: > 100 µM (inactive)
SNB-75
  GI50: > 100 µM (inactive)
MOLT-4
  GI50: > 100 µM (inactive)
UACC-257
  GI50: > 100 µM (inactive)
K562
  GI50: > 100 µM (inactive)
SF-268
  GI50: > 100 µM (inactive)
EKVX
  GI50: > 100 µM (inactive)
HCC 2998
  GI50: 16.3 µM (inactive)
M14
  GI50: > 100 µM (inactive)
HL-60
  GI50: > 100 µM (inactive)
COLO 205
  GI50: > 100 µM (inactive)
LOX IMVI
  GI50: > 100 µM (inactive)
SK-MEL-28
  GI50: > 100 µM (inactive)
MDA-N
  GI50: > 100 µM (inactive)
SW-620
  GI50: > 100 µM (inactive)
SK-OV-3
  GI50: > 100 µM (inactive)
NCI-H23
  GI50: > 100 µM (inactive)
MDA-MB-231
  GI50: 16.4 µM (inactive)
TK-10
  GI50: > 100 µM (inactive)
HOP-62
  GI50: 54 µM (inactive)
SN12C
  GI50: 75.7 µM (inactive)
Malme-3M
  GI50: 61.7 µM (inactive)
T47D
  GI50: > 100 µM (inactive)
OVCAR-3
  GI50: > 100 µM (inactive)
U-251
  GI50: > 100 µM (inactive)
OVCAR-5
  GI50: > 100 µM (inactive)
SF-295
  GI50: > 100 µM (inactive)
NCI-H226
  GI50: 24.9 µM (inactive)
786-0
  GI50: 35.5 µM (inactive)
MCF7
  GI50: > 100 µM (inactive)
SNB-19
  GI50: > 100 µM (inactive)
SF-539
  GI50: 77.8 µM (inactive)

## O=c1ccn(C2OC(COC3CCCCO3)C(OC3CCCCO3)C2OC2CCCCO2)c(=O)n1-c1ccccc1 (stereo not drawn)
OVCAR-4
  GI50: > 100 µM (inactive)
NCI/ADR-RES
  GI50: > 100 µM (inactive)
HCT-15
  GI50: > 100 µM
Hs-578T
  GI50: > 100 µM (inactive)
CAKI-1
  GI50: > 100 µM (inactive)
NCI-H460
  GI50: > 100 µM (inactive)
KM12
  GI50: > 100 µM (inactive)
RPMI-8226
  GI50: > 100 µM (inactive)
IGROV-1
  GI50: > 100 µM (inactive)
HCT-116
  GI50: > 100 µM (inactive)
CCRF-CEM
  GI50: > 100 µM (inactive)
DU-145
  GI50: > 100 µM (inactive)
SK-MEL-5
  GI50: > 100 µM (inactive)
OVCAR-8
  GI50: > 100 µM (inactive)
NCI-H522
  GI50: > 100 µM (inactive)
SR
  GI50: 51.5 µM (inactive)
ACHN
  GI50: > 100 µM (inactive)
HOP-92
  GI50: > 100 µM (inactive)
A549
  GI50: > 100 µM (inactive)
A498
  GI50: > 100 µM (inactive)
MDA-MB-435
  GI50: > 100 µM (inactive)
HT-29
  GI50: > 100 µM (inactive)
UO-31
  GI50: > 100 µM (inactive)
PC-3
  GI50: > 100 µM (inactive)
RXF 393
  GI50: > 100 µM (inactive)
SNB-75
  GI50: > 100 µM (inactive)
MOLT-4
  GI50: > 100 µM (inactive)
UACC-257
  GI50: > 100 µM (inactive)
K562
  GI50: 91.6 µM (inactive)
SF-268
  GI50: > 100 µM (inactive)
EKVX
  GI50: > 100 µM (inactive)
HCC 2998
  GI50: > 100 µM (inactive)
M14
  GI50: > 100 µM (inactive)
HL-60
  GI50: > 100 µM (inactive)
COLO 205
  GI50: > 100 µM (inactive)
LOX IMVI
  GI50: > 100 µM (inactive)
SK-MEL-28
  GI50: > 100 µM (inactive)
MDA-N
  GI50: > 100 µM (inactive)
SW-620
  GI50: > 100 µM (inactive)
SK-OV-3
  GI50: > 100 µM (inactive)
SK-MEL-2
  GI50: > 100 µM (inactive)
NCI-H23
  GI50: > 100 µM (inactive)
MDA-MB-231
  GI50: > 100 µM (inactive)
TK-10
  GI50: > 100 µM (inactive)
HOP-62
  GI50: > 100 µM (inactive)
SN12C
  GI50: > 100 µM (inactive)
Malme-3M
  GI50: > 100 µM (inactive)
T47D
  GI50: > 100 µM (inactive)
OVCAR-3
  GI50: > 100 µM (inactive)
U-251
  GI50: > 100 µM (inactive)
OVCAR-5
  GI50: > 100 µM (inactive)
SF-295
  GI50: > 100 µM (inactive)
NCI-H226
  GI50: > 100 µM (inactive)
786-0
  GI50: > 100 µM (inactive)
MCF7
  GI50: > 100 µM (inactive)
SNB-19
  GI50: > 100 µM (inactive)
SF-539
  GI50: > 100 µM (inactive)
